In patent US11912723B2, “KRAS modulators and uses thereof” (Quanta Therapeutics, Inc., priority 2022, dated 2024):

Experiments:
[1] = target: T1, GST-tagged KRAS G12D (2-169) (Homo sapiens, UniProt P01116, G12D); assay: Nucleotide exchange assay (NEA), HTRF of SOS-mediated GTP-DY-647P1 binding; format: biochemical; details: 5 nM GST-KRAS G12D, 20 nM SOScat, 150 nM GTP; compound 1 h at RT
T1 construct: GST-tagged KRAS^G12D (2-169, Reaction Biology, MSC-11-539); purchased Reaction Biology MSC-11-539 (KRAS G12D); MSC-11-502 (SOS1cat)
Text: This activity is tightly regulated by GTPase activating proteins (GAPs) and guanine nucleotide exchange factors (GEFs). GEFs, such as SOS1/2, activate Ras proteins by exchanging GDP for GTP, thus returning Ras to its active conformation (Simanshu, Nissley, & McCormick, 2017). […] Homogenous time resolved fluorescence (HTRF) was used to detect SOS-mediated binding of a fluorescent GTP analog, GTP-DY-647P1 (Jena Biosciences NU-820-647P1) to GST-tagged KRAS^G12D (2-169, Reaction Biology, MSC-11-539).
GST-tagged KRAS^G12D (2-169) and anti-GST MAb Tb Cryptate Gold (CisBio 61GSTTLB) were diluted into assay buffer (20 mM HEPES, pH 7.3, 150 mM NaCl, 5 mM MgCl2, 0.05% BSA 0.0025% NP40, 1 mM DTT) to prepare a 2.5× donor solution. 5× compound was added to the protein mixture and incubated for 1 h at RT. 2.5× acceptor solution containing SOS1cat (564-1049, Reaction Biology MSC-11-502) and GTP-DY-647P1 were then added to the donor KRAS mixture such that the final concentration of the reaction contained 5 nM GST-tagged KRAS^G12D (2-169), 20 nM SOScat, and 150 nM GTP. The reaction was monitored using at RT with the Envision multimode plate reader (Ex/Em 337/665, […]) up to 90 minutes at 5 minute intervals. Data was blanked to reactions without SOS1 and % inhibition was calculated such that DMSO only=0% and blank=100%. Curve fitting was done using a 4 parameter fit. NEA KRAS G12D ID50 (uM) values of selected compounds are depicted in Table 2 with compounds having a value<0.01 uM as ++++; >0.01 uM to 0.1 uM as +++; >0.1 uM to 1 uM as ++; >1 uM to 20 uM as +; and >20 uM as NA.

KRAS G12D/RAF1 = target: T2, KRAS G12D/RAF1 (Homo sapiens, UniProt P01116, G12D); assay: Protein-protein interaction (PPI) HTRF assay KRAS G12D/RAF1; format: binding; details: KRAS G12D/RAF1, GppNHp-loaded KRAS; 30 minutes pre-incubation
T2 construct: KRAS (1-169) proteins were expressed in E. coli at 18° C; His6-MBP (N, cleaved yes); made in house; host or cells: E. coli
Protocol: Biotinylated KRAS wt and KRAS G12DNV proteins were expressed and purified in conditions similar to those previously reported (Tran, et al., 2021) (Zhang, et al., 2020). Briefly, KRAS (1-169) proteins were expressed in E. coli at 18° C. with an upstream TEV cleavage site (ENLFYQS) followed an Avi tag sequence ([…]). KIRAS expression constructs contained both a His6 and maltose-binding protein (MBP) tags at the N-terminus for Ni-NTA column purification prior to overnight TEV cleavage and MBP column purification. The avi-tagged NRAS expression construct contained both a His6 tag and SUMO cleavage sige at the N-terminus for Ni-NTA column purification followed by His-ULP1 digestion overnight. All avi-tagged RAS proteins were dialyzed into buffer containing ATP, biotin, and BirA followed by purification over a second Ni-NTA column and then run over a size exclusion HiLoad™ 26/600 Superdex™ column in 20 mM HEPES, pH 7.5, 300 mM NaCl, 5 mM MgCl2, and 1 mM TCEP. Fractions containing the protein of interest were pooled, concentrated, and confirmed by intact mass spectrometry. To prepare ‘GTP’ loaded KRAS and NRAS, biotinylated KRAS or NRAS was nucleotide exchanged from GDP-bound protein to GppNHp-bound (Jena Biosciences, NU-401-50) protein in the presence of alkaline phosphatase and excess GppNHp as previously described and the resulting nucleotide content was confirmed by HPLC reverse phase analytical chromatography (Donohue, et al., 2019) (Tran, et al., 2021).
His-tagged RAF1 (52-131) was similarly expressed in E. coli at 18° C. overnight with an upstream TEV cleavage site. His-tagged RAF1 expression construct contained both a His6 and MBP tags at the N-terminus for Ni-NTA column purification followed by MBP-tagged TEV digestion overnight. RAF1 protein samples were further purified over a MBP column followed by a Ni-NTA column and a second MBP column. The fractions containing the protein of interest were pooled, concentrated, and further purified over a HiLoad™ 16/600 Superdex™ 75 pg size exclusion column into 20 mM HEPES, pH8.0, 200 mM NaCl, 5 mM TCEP.
When RAS proteins are in the active GTP-bound conformation, they bind the effector protein RAF1 at the N-terminus Ras-binding domain (RBD, residues 52-131) (Tran, et al., 2021). Homogenous time resolved fluorescence (HTRF) was used to monitor the interaction between wt or mutant KRAS and RAF1 or wt NRAS and RAFT. Compounds were assayed in the presence of KRAS G12D/V and RAF1 versus wt KRAS to assess activity against mutant and w.t. KRAS. Similarly, compounds were then assayed in the presence of w.t. NRAS and RAF1 to assess RAS isoform selectivity. In all assay formats, His-tagged RAF1 protein was incubated with the HTRF donor, anti-6His Tb Cryptate gold (Cisbio 61DB10RDF), and biotinylated RAS proteins were incubated with the HTRF acceptor, streptavidin-d2 (CisBio 610SADLA). The intensity of the fluorescence signal emitted is proportional to binding between the two proteins. The donor solution was prepared by mixing 16 nM His-tagged RAF1 in protein dilution buffer with 1:100 anti-6His Tb cryptate in PPI-Terbium detection buffer. 16 nM biotinylated RAS protein was diluted into protein dilution buffer (50 mM Tris-HCl pH 7.5, 150 mM NaCl, 0.1 mM MgCl2, 1 mM TCEP, 0.005% Tween20) and mixed with 1:2000 Streptavidin-d2 diluted in PPI-Terbium detection buffer (CisBio 61DB10RDF). 50× compound in DMSO was mixed with 16 nM KRAS-acceptor solution and incubated for 30 minutes at room temperature. After compound pre-incubation with KRAS, the RAF1 donor solution was added to the KRAS-acceptor solution and incubated for 1 hour at room temperature. The fluorescence signal emitted was monitored at 665 nm and 615 nm using an Envision multimode plate reader. The HTRF ratio (665/615) was calculated and normalized to 0% inhibition in the absence of compound and 100% inhibition in the presence of untagged RAF1 protein. […]

T2 sequence (P01116 1-169 isoform P01116-2 G12D): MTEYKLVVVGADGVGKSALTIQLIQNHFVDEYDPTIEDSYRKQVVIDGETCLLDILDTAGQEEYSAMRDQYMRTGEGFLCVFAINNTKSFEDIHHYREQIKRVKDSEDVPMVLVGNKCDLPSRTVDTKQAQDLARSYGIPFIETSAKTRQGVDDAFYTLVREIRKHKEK
T1 sequence (P01116 2-169 isoform P01116-2 G12D): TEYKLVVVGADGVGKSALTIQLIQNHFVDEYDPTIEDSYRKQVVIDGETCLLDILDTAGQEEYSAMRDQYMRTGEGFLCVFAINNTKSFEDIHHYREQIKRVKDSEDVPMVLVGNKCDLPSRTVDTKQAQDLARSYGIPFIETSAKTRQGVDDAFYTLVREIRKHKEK

`O=C1NC(=O)[C@@H]2CN(c3nc(OC[C@@]45CCCN4C[C@H](F)C5)nc4c3CO[C@@]3(CCc5c(Cl)cccc53)C4)C[C@H]12` [Compound 33, (3aR,6aS)-5-[(7S)-4′-chloro-2-[[(2R,8S)-2-fluoro-1,2,3,5,6,7-hexahydropyrrolizin-8-yl]methoxy]spiro[5,8-dihydropyrano[4,3-d]pyrimidine-7,1′-indane]-4-yl]-3a,4,6,6a-tetrahydropyrrolo[3,4-c]pyrrole-1,3-dione] showed an IC50 [1] of 0.1 to 1 µM and an IC50 (KRAS G12D/RAF1) of 10 to 100 µM.
With `CC(C)NC(=O)c1cc2n(n1)CCCN(c1nc(OC[C@@]34CCCN3C[C@H](F)C4)nc3c1CO[C@@]1(CCc4c(Cl)cccc41)C3)C2` [Compound 35, 5-[(7S)-4′-chloro-2-[[(2R,8S)-2-fluoro-1,2,3,5,6,7-hexahydropyrrolizin-8-yl]methoxy]spiro[5,8-dihydropyrano[4,3-d]pyrimidine-7,1′-indane]-4-yl]-N-isopropyl-4,6,7,8-tetrahydropyrazolo[1,5-a][1,4]diazepine-2-carboxamide] the IC50 [1] was 0.01 to 0.1 µM and the IC50 (KRAS G12D/RAF1) was over 100 µM.
In the case of `CN(C)C(=O)c1nn2c(c1Cl)CN(c1nc(OC[C@@]34CCCN3C[C@H](F)C4)nc3c1CO[C@@]1(CCc4c(Cl)cccc41)C3)CCC2` [Compound 36, 3-chloro-5-[(7S)-4′-chloro-2-[[(2R,8S)-2-fluoro-1,2,3,5,6,7-hexahydropyrrolizin-8-yl]methoxy]spiro[5,8-dihydropyrano[4,3-d]pyrimidine-7,1′-indane]-4-yl]-N,N-dimethyl-4,6,7,8-tetrahydropyrazolo[1,5-a][1,4]diazepine-2-carboxamide], the IC50 [1] is reported as under 0.01 µM and the IC50 (KRAS G12D/RAF1) is reported as 10 to 100 µM.
Molecule `CN(O)C(=O)c1cc2n(n1)CCCN(c1nc(OC[C@@]34CCCN3C[C@H](F)C4)nc3c1CO[C@@]1(CCc4c(Cl)cccc41)C3)C2` [Compound 37, 5-[(7S)-4′-chloro-2-[[(2R,8S)-2-fluoro-1,2,3,5,6,7-hexahydropyrrolizin-8-yl]methoxy]spiro[5,8-dihydropyrano[4,3-d]pyrimidine-7,1′-indane]-4-yl]-N-hydroxy-N-methyl-4,6,7,8-tetrahydropyrazolo[1,5-a][1,4]diazepine-2-carboxamide] has an IC50 [1] of under 0.01 µM and an IC50 (KRAS G12D/RAF1) of over 100 µM.
In the case of `O=C(c1cc2n(n1)CCCN(c1nc(OC[C@@]34CCCN3C[C@H](F)C4)nc3c1CO[C@@]1(CCc4c(Cl)cccc41)C3)C2)N1CCOCC1` [Compound 38, morpholino-[5-[(7S)-4′-chloro-2-[[(2R,8S)-2-fluoro-1,2,3,5,6,7-hexahydropyrrolizin-8-yl]methoxy]spiro[5,8-dihydropyrano[4,3-d]pyrimidine-7,1′-indane]-4-yl]-4,6,7,8-tetrahydropyrazolo[1,5-a][1,4]diazepin-2-yl]methanone; 2,2,2-trifluoroacetic acid], the IC50 [1] is reported as under 0.01 µM and the IC50 (KRAS G12D/RAF1) is reported as 10 to 100 µM.
`CN(C)C(=O)c1cc2n(n1)CCCN(c1nc(OC[C@@]34CCCN3C[C@H](F)C4)nc3c1COC1(CCCc4ccc(O)c(Cl)c41)C3)C2` (stereo partly drawn) [Compound 40, 5-[8′-chloro-7′-hydroxy-2-[[(2R,8S)-2-fluoro-1,2,3,5,6,7-hexahydropyrrolizin-8-yl]methoxy]spiro[5,8-dihydropyrano[4,3-d]pyrimidine-7,1′-tetralin]-4-yl]-N,N-dimethyl-4,6,7,8-tetrahydropyrazolo[1,5-a][1,4]diazepine-2-carboxamide] gave an IC50 [1] of 0.01 to 0.1 µM and an IC50 (KRAS G12D/RAF1) of over 100 µM.
`N=S1(=O)CCN(C(=O)c2nn3c(c2Cl)CN(c2nc(OC[C@@]45CCCN4C[C@H](F)C5)nc4c2CO[C@@]2(CCc5c(Cl)cccc52)C4)CCC3)CC1` [Compound 52, [3-chloro-5-[(7S)-4′-chloro-2-[[(2R,8S)-2-fluoro-1,2,3,5,6,7-hexahydropyrrolizin-8-yl]methoxy]spiro[5,8-dihydropyrano[4,3-d]pyrimidine-7,1′-indane]-4-yl]-4,6,7,8-tetrahydropyrazolo[1,5-a][1,4]diazepin-2-yl]-(1-imino-1-oxo-1,4-thiazinan-4-yl)methanone] was tested, and the IC50 [1] was under 0.01 µM and the IC50 (KRAS G12D/RAF1) was 10 to 100 µM.
With `CNCc1nn2c(c1Cl)CN(c1nc(OC[C@@]34CCCN3C[C@H](F)C4)nc3c1CO[C@@]1(CCc4c(Cl)cccc41)C3)CCC2` [Compound 59, 1-[3-chloro-5-[(7S)-4′-chloro-2-[[(2R,8S)-2-fluoro-1,2,3,5,6,7-hexahydropyrrolizin-8-yl]methoxy]spiro[5,8-dihydropyrano[4,3-d]pyrimidine-7,1′-indane]-4-yl]-4,6,7,8-tetrahydropyrazolo[1,5-a][1,4]diazepin-2-yl]-N-methyl-methanamine] the IC50 [1] was 0.01 to 0.1 µM and the IC50 (KRAS G12D/RAF1) was over 100 µM.
In the case of `CS(=O)(=O)c1cc2n(n1)CCCN(c1nc(OC[C@@]34CCCN3C[C@H](F)C4)nc3c1CO[C@@]1(CCc4c(Cl)cccc41)C3)C2` [Compound 62, (7S)-4′-chloro-2-[[(2R,8S)-2-fluoro-1,2,3,5,6,7-hexahydropyrrolizin-8-yl]methoxy]-4-(2-methylsulfonyl-4,6,7,8-tetrahydropyrazolo[1,5-a][1,4]diazepin-5-yl)spiro[5,8-dihydropyrano[4,3-d]pyrimidine-7,1′-indane]], the IC50 [1] is reported as 0.01 to 0.1 µM and the IC50 (KRAS G12D/RAF1) is reported as over 100 µM.
With `CN1Cc2c(nc(OC[C@@]34CCCN3C[C@H](F)C4)nc2N2CCC[C@]3(C2)NC(=O)NC3=O)C[C@]12CCCc1ccccc12` [Compound 71, (5R)-9-[(7S)-2-[[(2R,8S)-2-fluoro-1,2,3,5,6,7-hexahydropyrrolizin-8-yl]methoxy]-6-methyl-spiro[5,8-dihydropyrido[4,3-d]pyrimidine-7,1′-tetralin]-4-yl]-1,3,9-triazaspiro[4.5]decane-2,4-dione] the IC50 [1] was 0.1 to 1 µM and the IC50 (KRAS G12D/RAF1) was over 100 µM.
